In PubChem BioAssay AID330 (DTP/NCI, 2004):
Where “and” joins values, the source holds several entries; their conditions need not be identical. Equal entries are not always repeated. Inconclusive results and toxic doses are left out.

System: P388 leukemia ip, CD2F1 mice, survival T/C
Test: NCI In Vivo Anticancer Drug Screen. Data for tumor model P388 Leukemia (intraperitoneal) in CD2F1 (CDF1) mice
Details: endpoint: median survival time, higher = longer survival
Procedure, shortened: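 Mice carrying the transplanted tumor received test compound or vehicle. Survival was recorded in each group, and the value is the treated-group measurement divided by that of the vehicle-treated control group.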

[1] = dose: 7.5 mg/kg/injection, schedule: Q01DX009 (ip), vehicle: saline
[2] = dose: 60.0 mg/kg/injection, schedule: Q01DX005 (ip), vehicle: saline with Tween-80
[3] = dose: 120.0 mg/kg/injection, schedule: Q01DX005 (ip), vehicle: saline with Tween-80
[4] = dose: 240.0 mg/kg/injection, schedule: Q01DX005 (ip), vehicle: saline with Tween-80
[5] = dose: 50.0 mg/kg/injection, schedule: Q01DX005 (ip), vehicle: saline with Tween-80
[6] = dose: 100.0 mg/kg/injection, schedule: Q01DX005 (ip), vehicle: saline with Tween-80
[7] = dose: 200.0 mg/kg/injection, schedule: Q01DX005 (ip), vehicle: saline with Tween-80

`O=c1[nH]cc(F)c(=O)[nH]1` was tested, and the T/C (dose: 6.25 mg/kg/injection, schedule: Q01DX009 (ip), vehicle: saline) was 163 % of control, the T/C [1] was 167 % of control and 172 % of control and the T/C (dose: 7.5 mg/kg/injection, schedule: Q01DX009 (oral), vehicle: clinical formulation) was 107 % of control. For the same molecule, the T/C (dose: 7.5 mg/kg/injection, schedule: Q03HX024 (ip), vehicle: saline) was 201 % of control, the T/C (dose: 7.5 mg/kg/injection, schedule: Q04DX003 (iv), vehicle: saline) was 107 % of control and the T/C (dose: 7.8 mg/kg/injection, schedule: Q04DX003 (ip), vehicle: saline) was 99 % of control. The T/C (dose: 9.0 mg/kg/injection, schedule: Q01DX009 (ip), vehicle: saline) was 159 % of control, the T/C (dose: 10.0 mg/kg/injection, schedule: Q03HX024 (ip), vehicle: saline) was 228 % of control and the T/C (dose: 10.0 mg/kg/injection, schedule: Q04DX002 (ip), vehicle: saline) was 123 % of control. For the same molecule, the T/C (dose: 12.0 mg/kg/injection, schedule: Q01DX009 (ip), vehicle: saline) was 153 % of control and 166 % of control, the T/C (dose: 12.5 mg/kg/injection, schedule: Q01DX005 (ip), vehicle: saline) was 167 % of control and 176 % of control and the T/C (dose: 12.5 mg/kg/injection, schedule: Q01DX009 (ip), vehicle: saline) was 166 % of control. The T/C (dose: 13.0 mg/kg/injection, schedule: Q04DX002 (ip), vehicle: saline) was 106 % of control, the T/C (dose: 13.2 mg/kg/injection, schedule: Q01DX009 (ip), vehicle: saline) was 182 % of control and 213 % of control and the T/C (dose: 13.2 mg/kg/injection, schedule: Q01DX009 (ip), vehicle: water) was 200 % of control. For the same molecule, the T/C (dose: 13.3 mg/kg/injection, schedule: Q01DX009 (ip), vehicle: saline sonified) was 165 % of control and 181 % of control and 200 % of control, the T/C (dose: 15.0 mg/kg/injection, schedule: Q03HX024 (ip), vehicle: saline) was 257 % of control and the T/C (dose: 15.0 mg/kg/injection, schedule: Q04DX003 (iv), vehicle: saline) was 109 % of control. The T/C (dose: 16.0 mg/kg/injection, schedule: Q01DX009 (ip), vehicle: saline) was 212 % of control, the T/C (dose: 18.0 mg/kg/injection, schedule: Q01DX009 (ip), vehicle: saline) was 166 % of control and the T/C (dose: 19.0 mg/kg/injection, schedule: Q01DX009 (ip), vehicle: saline) was 170 % of control. For the same molecule, the T/C (dose: 20.0 mg/kg/injection, schedule: Q01DX009 (ip), vehicle: water) was 118 % of control, the T/C (dose: 21.6 mg/kg/injection, schedule: Q04DX002 (ip), vehicle: saline) was 97 % of control and the T/C (dose: 22.5 mg/kg/injection, schedule: Q03HX024 (ip), vehicle: saline) was 118 % of control. For the same molecule, the T/C (dose: 24.0 mg/kg/injection, schedule: Q01DX009 (ip), vehicle: saline) was 119 % of control and 223 % of control, the T/C (dose: 25.0 mg/kg/injection, schedule: Q01DX001 (iv), vehicle: saline) was 120 % of control and the T/C (dose: 27.0 mg/kg/injection, schedule: Q01DX009 (ip), vehicle: water) was 97 % of control. For the same molecule, the T/C (dose: 27.0 mg/kg/injection, schedule: Q04DX003 (ip), vehicle: saline) was 158 % of control, the T/C (dose: 28.0 mg/kg/injection, schedule: Q01DX009 (ip), vehicle: saline) was 101 % of control and the T/C (dose: 28.8 mg/kg/injection, schedule: Q01DX005 (ip), vehicle: saline) was 158 % of control. The T/C (dose: 30.0 mg/kg/injection, schedule: Q03DX003 (ip), vehicle: saline) was 162 % of control, the T/C (dose: 30.0 mg/kg/injection, schedule: Q04DX003 (iv), vehicle: saline) was 124 % of control and the T/C (dose: 36.0 mg/kg/injection, schedule: Q01DX009 (ip), vehicle: saline) was 100 % of control. The T/C (dose: 36.0 mg/kg/injection, schedule: Q04DX002 (ip), vehicle: saline) was 112 % of control, the T/C (dose: 40.0 mg/kg/injection, schedule: Q03DX003 (ip), vehicle: saline) was 165 % of control and the T/C (dose: 45.0 mg/kg/injection, schedule: Q01DX009 (ip), vehicle: saline) was 99 % of control. For the same molecule, the T/C (dose: 48.0 mg/kg/injection, schedule: Q01DX005 (ip), vehicle: saline) was 109 % of control, the T/C (dose: 50.0 mg/kg/injection, schedule: Q01DX001 (ip), vehicle: saline) was 119 % of control and the T/C (dose: 50.0 mg/kg/injection, schedule: Q01DX005 (ip), vehicle: saline) was 112 % of control. The T/C (dose: 50.0 mg/kg/injection, schedule: Q03DX003 (ip), vehicle: saline) was 168 % of control, the T/C (dose: 50.0 mg/kg/injection, schedule: Q04DX002 (ip), vehicle: saline) was 154 % of control and the T/C (dose: 54.0 mg/kg/injection, schedule: Q04DX003 (ip), vehicle: saline) was 159 % of control. For the same molecule, the T/C (dose: 60.0 mg/kg/injection, schedule: Q01DX009 (oral), vehicle: clinical formulation) was 94 % of control, the T/C (dose: 60.0 mg/kg/injection, schedule: Q03DX003 (ip), vehicle: saline) was 99 % of control and the T/C (dose: 60.0 mg/kg/injection, schedule: Q04DX003 (ip), vehicle: water) was 170 % of control. The T/C (dose: 60.0 mg/kg/injection, schedule: Q04DX003 (iv), vehicle: saline) was 122 % of control, the T/C (dose: 66.0 mg/kg/injection, schedule: Q01DX001 (ip), vehicle: saline) was 120 % of control and the T/C (dose: 75.0 mg/kg/injection, schedule: Q01DX005 (ip), vehicle: saline) was 99 % of control. For the same molecule, the T/C (dose: 75.0 mg/kg/injection, schedule: Q04DX003 (ip), vehicle: saline) was 185 % of control and 192 % of control and 199 % of control, the T/C (dose: 88.0 mg/kg/injection, schedule: Q01DX001 (ip), vehicle: saline) was 115 % of control and the T/C (dose: 90.0 mg/kg/injection, schedule: Q04DX003 (ip), vehicle: saline sonified) was 108 % of control. For the same molecule, the T/C (dose: 100.0 mg/kg/injection, schedule: Q01DX001 (iv), vehicle: saline) was 164 % of control, the T/C (dose: 120.0 mg/kg/injection, schedule: Q01DX005 (ip), vehicle: saline) was 91 % of control and the T/C (dose: 120.0 mg/kg/injection, schedule: Q01DX009 (ip), vehicle: saline) was 83 % of control. For the same molecule, the T/C (dose: 120.0 mg/kg/injection, schedule: Q04DX003 (iv), vehicle: saline) was 87 % of control, the T/C (dose: 125.0 mg/kg/injection, schedule: Q04DX003 (ip), vehicle: saline) was 109 % of control and the T/C (dose: 133.3 mg/kg/injection, schedule: Q01DX001 (ip), vehicle: saline) was 337 % of control. The T/C (dose: 135.0 mg/kg/injection, schedule: Q04DX003 (ip), vehicle: saline) was 98 % of control, the T/C (dose: 166.7 mg/kg/injection, schedule: Q04DX003 (ip), vehicle: saline) was 79 % of control and 81 % of control and the T/C (dose: 400.0 mg/kg/injection, schedule: Q01DX001 (iv), vehicle: saline) was 100 % of control.
For `CC1=C/C(=N\[Se]c2ccccc2)C(=O)C(C)=C1`, the T/C (dose: 100.0 mg/kg/injection, schedule: Q04DX003 (ip), vehicle: Klucel (hydroxypropylcellulose) (HPC)) was 100 % of control, the T/C (dose: 200.0 mg/kg/injection, schedule: Q04DX003 (ip), vehicle: Klucel (hydroxypropylcellulose) (HPC)) was 91 % of control and the T/C (dose: 400.0 mg/kg/injection, schedule: Q04DX003 (ip), vehicle: Klucel (hydroxypropylcellulose) (HPC)) was 96 % of control.
With `COc1nc(NC2OCC(OC(C)=O)C(OC(C)=O)C2OC(C)=O)c(N=CC=Nc2c(NC3OCC(OC(C)=O)C(OC(C)=O)C3OC(C)=O)nc(OC)n(C)c2=O)c(=O)n1C` (stereo not drawn) the T/C [2] was 92 % of control, the T/C [3] was 91 % of control and the T/C [4] was 91 % of control.
With `Nc1nc(SN=Nc2ccc(S(N)(=O)=O)cc2)c2[nH]cnc2n1` the T/C [1] was 118 % of control and the T/C (dose: 15.0 mg/kg/injection, schedule: Q01DX009 (ip), vehicle: saline) was 100 % of control.
In the case of `CCOC(=O)C(c1ccccc1)C(NC(C)=O)(C(=O)OCC)C(=O)OCC` (stereo not drawn), the T/C [2] is reported as 102 % of control, the T/C [3] is reported as 102 % of control and the T/C [4] is reported as 105 % of control.
`Cc1cc(N/N=C/c2ccc(Br)cc2)c2cc3c(cc2n1)OCO3` was tested, and the T/C (dose: 50.0 mg/kg/injection, schedule: Q01DX005 (ip), vehicle: Klucel (hydroxypropylcellulose) (HPC)) was 94 % of control, the T/C (dose: 100.0 mg/kg/injection, schedule: Q01DX005 (ip), vehicle: Klucel (hydroxypropylcellulose) (HPC)) was 96 % of control and the T/C (dose: 200.0 mg/kg/injection, schedule: Q01DX005 (ip), vehicle: Klucel (hydroxypropylcellulose) (HPC)) was 96 % of control.
For `O=C(Nc1ccc(Sc2ccc(N=Nc3c(O)c(S(=O)(=O)O)cc4cc(S(=O)(=O)O)ccc34)cc2)cc1)c1ccc(N=Nc2c(O)c(S(=O)(=O)O)cc3cc(S(=O)(=O)O)ccc23)cc1`, the T/C [5] was 98 % of control, the T/C [6] was 104 % of control and the T/C [7] was 104 % of control.
For `Cc1nnc2c(NO)nccn12`, the T/C (dose: 75.0 mg/kg/injection, schedule: Q01DX001 (ip), vehicle: saline) was 99 % of control, the T/C (dose: 150.0 mg/kg/injection, schedule: Q01DX001 (ip), vehicle: saline) was 101 % of control and the T/C (dose: 300.0 mg/kg/injection, schedule: Q01DX001 (ip), vehicle: saline) was 96 % of control.
For `NS(=O)(=O)c1ccc(Nc2c3ccc(Cl)cc3nc3ncccc23)cc1`, the T/C [5] was 108 % of control, the T/C [6] was 101 % of control and the T/C [7] was 94 % of control.
